This note sets out measurements from article PMC7217877, “N-AS-triggered SPMs are direct regulators of microglia in a model of Alzheimer’s disease” (Nature Communications, 2020).

Several values for one entry are separate records, joined by “and”; a condition that tells them apart may be missing. Equal entries are not always repeated.

Test [1] concerns neuron. The test is described as follows: immunofluorescence of ac-S565 and COX2 in primary cells. The test is classed as cell-based, C57BL/6 mice. The note with it: Ab 10mM, replicates. The procedure:
(§1) To confirm the generation and roles of N-AS in neurons, cells from E18 C57BL/6 mice were prepared as previously described. Cortices were dissected and then dissociated followed by incubation in papain (Worthington) at 37 °C for 15 min. Neurons were plated on poly-L-lysine-coated coverslips with neuronal culture medium, serum-free Neurobasal medium (Gibco) containing 2% B27 supplements (Gibco), 1 mM Glutamax supplement (Gibco), and 100 U ml^−1 streptomycin/ 100 U ml^−1 penicillin (Gibco) at 37 °C in a humidified atmosphere of 5% CO2. […] Primary astrocyte cultures were prepared from C57BL/6 mice as described previously. In brief, after removal of the meninges, postnatal day 7 (P7) mouse brain tissues were minced and incubated in a rocking water bath at 37 °C for 30 min in the presence of 0.25% trypsin-EDTA (Sigma-Aldrich). […] The human microglia treated with Aβ 1–42 and/or zileuton was incubated with N-AS (2.5 μM, 2 h, Sigma-Aldrich, 01912), and were analyzed for the generation and roles of N-AS.
Thioflavin S (Sigma-Aldrich) staining was carried out according to previously described procedures. […] The sections were analyzed with a laser-scanning confocal microscope (FV3000; Olympus) or with a BX51 microscope (Olympus). MetaMorph software (Molecular Devices) was used to quantification. Three-dimensional reconstruction of microglia was recorded and analyzed using IMARIS software (Bitplane)[11]. […]

Test [2] relates to neuron. Briefly: sphingosine level in primary cells (UPLC). The test is classed as cell-based, C57BL/6 mice. Conditions: Ab 10mM, replicates. The procedure: as §1
To quantify the sphingosine levels, the dried lipid extract was resuspended in 0.2% Igepal CA-630. […] The fluorescent sphingosine was monitored using a model 474 scanning fluorescence detector (Waters). Quantification of the sphingosine was calculated from sphingosine calibration curves using the Waters Millennium software.

In the case of “Ab: Aβ 1–42 (Invitrogen, 03112) used to induce an AD environment in cells”, in test [1], the “ac-S565 with COX2, immunofluorescence quantification (Fig 3c)” value is 0.191 and 0.165 and 0.09731 and 0.2737 and 0.2437 and 0.2571. The “sphingosine (Fig 3f)” value in test [2] is 0.1262 and 0.1156 and 0.1288 and 0.1301 and 0.1222 and 0.1295.
